This is an account of results in ChEMBL document CHEMBL1144796, “Carbonic anhydrase inhibitors. Interaction of indapamide and related diuretics with 12 mammalian isozymes and X-ray crystallographic studies for the indapamide-isozyme II adduct” (Bioorg Med Chem Lett, 2008).

The structures appear in SMILES notation. pKi: −log10 of the molar value.

In assay [1] the target is Carbonic anhydrase 2 (Homo sapiens) (UniProt P00918).
Assay [2] deals with Carbonic anhydrase 13 (Mus musculus) (UniProt Q9D6N1). Description: Inhibition of mouse full length carbonic anhydrase 13.
Sequence of Carbonic anhydrase 13 (Mus musculus) (Q9D6N1 whole entry, looked up): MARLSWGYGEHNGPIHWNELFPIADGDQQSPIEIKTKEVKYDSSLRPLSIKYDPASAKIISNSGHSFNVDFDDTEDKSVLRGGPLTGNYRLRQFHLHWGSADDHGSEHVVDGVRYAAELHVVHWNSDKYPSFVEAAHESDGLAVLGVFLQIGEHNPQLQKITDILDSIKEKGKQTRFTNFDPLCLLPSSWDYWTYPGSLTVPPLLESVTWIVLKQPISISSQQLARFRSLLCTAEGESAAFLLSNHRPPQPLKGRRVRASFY
In assay [3] the target is Carbonic anhydrase 5B, mitochondrial (Homo sapiens) (UniProt Q9Y2D0).
Sequence of Carbonic anhydrase 5B, mitochondrial (Homo sapiens) (Q9Y2D0 whole entry): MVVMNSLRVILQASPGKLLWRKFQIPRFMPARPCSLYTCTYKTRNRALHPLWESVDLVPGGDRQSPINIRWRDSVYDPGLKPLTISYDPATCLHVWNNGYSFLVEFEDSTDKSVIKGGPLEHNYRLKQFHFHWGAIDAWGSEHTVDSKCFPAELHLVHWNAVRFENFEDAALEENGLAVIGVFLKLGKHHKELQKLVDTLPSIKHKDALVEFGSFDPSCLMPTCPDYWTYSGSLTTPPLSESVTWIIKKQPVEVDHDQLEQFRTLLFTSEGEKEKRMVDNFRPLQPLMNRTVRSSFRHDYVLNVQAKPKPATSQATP
The target of assay [4] is Carbonic anhydrase 6 (Homo sapiens) (UniProt P23280).
Sequence of Carbonic anhydrase 6 (Homo sapiens) (P23280 whole entry): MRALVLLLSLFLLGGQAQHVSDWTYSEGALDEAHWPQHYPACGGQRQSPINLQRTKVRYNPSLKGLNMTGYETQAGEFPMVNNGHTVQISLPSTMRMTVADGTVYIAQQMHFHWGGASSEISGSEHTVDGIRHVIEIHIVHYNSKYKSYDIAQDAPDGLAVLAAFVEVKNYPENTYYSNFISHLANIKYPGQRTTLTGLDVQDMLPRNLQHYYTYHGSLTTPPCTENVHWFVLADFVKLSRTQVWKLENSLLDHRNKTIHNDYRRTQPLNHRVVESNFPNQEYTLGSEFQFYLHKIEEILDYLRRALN
Assay [5] addresses Carbonic anhydrase 7 (Homo sapiens) (UniProt P43166).
The target in assay [6] is Carbonic anhydrase 9 (Homo sapiens) (UniProt Q16790).
The target in assay [7] is Carbonic anhydrase 12 (Homo sapiens) (UniProt O43570).
Sequence of Carbonic anhydrase 12 (Homo sapiens) (O43570 whole entry): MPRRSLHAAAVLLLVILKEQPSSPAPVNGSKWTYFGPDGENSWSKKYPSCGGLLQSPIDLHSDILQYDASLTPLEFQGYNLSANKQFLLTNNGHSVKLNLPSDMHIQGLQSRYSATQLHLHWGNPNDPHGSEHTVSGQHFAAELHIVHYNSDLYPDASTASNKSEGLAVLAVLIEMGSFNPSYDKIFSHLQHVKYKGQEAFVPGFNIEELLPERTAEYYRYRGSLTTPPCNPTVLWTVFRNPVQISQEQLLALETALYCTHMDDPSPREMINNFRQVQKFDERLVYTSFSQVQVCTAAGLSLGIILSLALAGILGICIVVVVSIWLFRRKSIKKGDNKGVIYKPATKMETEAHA
Assay [8] addresses Carbonic anhydrase 14 (Homo sapiens) (UniProt Q9ULX7).
Assay [9] deals with Carbonic anhydrase 3 (Homo sapiens) (UniProt P07451).
Sequence of Carbonic anhydrase 3 (Homo sapiens) (P07451 whole entry): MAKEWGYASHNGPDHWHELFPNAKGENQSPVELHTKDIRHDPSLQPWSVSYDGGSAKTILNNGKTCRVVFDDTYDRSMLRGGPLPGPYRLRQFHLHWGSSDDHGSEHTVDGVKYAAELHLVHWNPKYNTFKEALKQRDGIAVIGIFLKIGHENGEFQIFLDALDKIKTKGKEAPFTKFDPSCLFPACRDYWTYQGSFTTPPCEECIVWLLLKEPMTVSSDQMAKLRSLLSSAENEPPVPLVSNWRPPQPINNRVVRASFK
Assay [10] concerns the target Carbonic anhydrase 4 (Homo sapiens) (UniProt P22748).
Assay [11] has as its target Carbonic anhydrase 5A, mitochondrial (Homo sapiens) (UniProt P35218).

Sequence of Carbonic anhydrase 5A, mitochondrial (Homo sapiens) (P35218 whole entry): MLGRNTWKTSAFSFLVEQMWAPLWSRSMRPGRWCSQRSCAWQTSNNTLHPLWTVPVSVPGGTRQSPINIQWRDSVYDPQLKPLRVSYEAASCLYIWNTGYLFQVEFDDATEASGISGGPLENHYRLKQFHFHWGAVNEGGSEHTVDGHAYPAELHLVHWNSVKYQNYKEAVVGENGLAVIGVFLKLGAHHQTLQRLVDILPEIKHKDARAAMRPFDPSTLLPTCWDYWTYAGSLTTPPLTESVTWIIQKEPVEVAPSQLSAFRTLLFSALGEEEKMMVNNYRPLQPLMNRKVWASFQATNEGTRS
Sequence of Carbonic anhydrase 14 (Homo sapiens) (Q9ULX7 whole entry): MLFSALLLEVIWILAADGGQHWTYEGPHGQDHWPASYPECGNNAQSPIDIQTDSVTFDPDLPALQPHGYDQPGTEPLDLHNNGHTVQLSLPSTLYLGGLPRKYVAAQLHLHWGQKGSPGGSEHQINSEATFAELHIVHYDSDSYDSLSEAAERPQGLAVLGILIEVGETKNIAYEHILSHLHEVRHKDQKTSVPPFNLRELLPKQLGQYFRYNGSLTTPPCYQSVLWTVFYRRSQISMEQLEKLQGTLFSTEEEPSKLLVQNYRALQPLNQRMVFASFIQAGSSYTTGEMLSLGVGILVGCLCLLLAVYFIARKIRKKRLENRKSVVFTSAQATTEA
Sequence of Carbonic anhydrase 4 (Homo sapiens) (P22748 whole entry): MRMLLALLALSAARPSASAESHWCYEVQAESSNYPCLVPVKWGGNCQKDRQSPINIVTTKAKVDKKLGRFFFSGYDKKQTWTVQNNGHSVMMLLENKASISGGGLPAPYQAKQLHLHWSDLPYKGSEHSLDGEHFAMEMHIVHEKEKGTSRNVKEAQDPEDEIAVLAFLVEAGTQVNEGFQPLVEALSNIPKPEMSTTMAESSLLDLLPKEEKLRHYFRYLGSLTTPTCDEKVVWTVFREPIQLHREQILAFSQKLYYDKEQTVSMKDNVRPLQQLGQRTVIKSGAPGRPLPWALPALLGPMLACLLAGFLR
Sequence of Carbonic anhydrase 7 (Homo sapiens) (P43166 whole entry): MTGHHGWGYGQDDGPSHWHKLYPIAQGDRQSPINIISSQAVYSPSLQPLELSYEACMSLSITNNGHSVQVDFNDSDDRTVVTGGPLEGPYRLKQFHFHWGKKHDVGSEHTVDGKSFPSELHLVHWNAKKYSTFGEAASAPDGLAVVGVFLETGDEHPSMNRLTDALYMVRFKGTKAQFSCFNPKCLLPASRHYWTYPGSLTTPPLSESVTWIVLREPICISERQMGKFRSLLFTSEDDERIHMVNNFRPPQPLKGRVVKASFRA

In the case of `CCC1NC(=O)c2cc(S(N)(=O)=O)c(Cl)cc2N1` (stereo not drawn), the pKi in assay [1] was 5.90.
Regarding `CC1Nc2cc(C(F)(F)F)c(S(N)(=O)=O)cc2S(=O)(=O)N1C` (stereo not drawn), the negative logarithm of the Ki (pKi) in assay [2] was 4.81; in [3] it was 6.37; in assay [4], 5.08; in assay [5], 6.36; in assay [6], 6.39; in assay [7], 6.52. For the same compound, the pKi is 6.44 in assay [8], 6.36 in [1], 5.32 in assay [10] and 4.99 in [11]. For the same compound, the Ki in assay [9] is > 2 10^5nM.
Take `NS(=O)(=O)c1cc(C(=O)O)c(NCc2ccco2)cc1Cl`: the inhibitory constant (Ki) in assay [9] is > 2 10^5nM.
Consider `CCCCNc1cc(C(=O)O)cc(S(N)(=O)=O)c1Oc1ccccc1`, for which the negative logarithm of the Ki (pKi) was 5.59 in assay [2]; 6.80 in assay [3]; 5.41 in [4]; 7.21 in assay [5]; 7.59 in assay [6]; 7.68 in assay [7]. For the same compound, the pKi in [8] was 6.60; in assay [1], 5.16; in [10] it was 6.52; in [11], 6.15. Further, the Ki in assay [9] was > 2 10^5nM.
As for `CC1Nc2cc(Cl)c(S(N)(=O)=O)cc2S(=O)(=O)N1C` (stereo not drawn), the negative-log Ki (pKi) in assay [2] was 5.41; in assay [3], 6.22; in [4] it was 5.44; in assay [6], 6.44; in [7] it was 6.45; in [8], 5.39. Further, the results for the pKi in assay [10] and in assay [11] were 6.37 and 5.37, respectively. Also, the Ki in assay [9] was > 2 10^5nM.
Take `Cc1ccccc1N1C(=O)c2cc(S(N)(=O)=O)c(Cl)cc2NC1C` (stereo not drawn): the negative-log Ki (pKi) is 7.82 in assay [2]; 6.51 in assay [3]; 5.77 in [4]; 6.49 in [6]; 8.27 in assay [7]; 5.27 in assay [8]. The values for the negative logarithm of the Ki (pKi) in assay [1], in assay [10] and in [11] were 5.70, 6.67 and 6.12, respectively. For the same compound, in assay [9], the inhibition constant (Ki) is > 2 10^5nM.
Take `CC(=O)/N=c1/sc(S(N)(=O)=O)nn1C`: the inhibition constant (Ki) in [9] was > 2 10^5nM.
Turning to `NS(=O)(=O)c1cc(C2(O)NC(=O)c3ccccc32)ccc1Cl` (stereo not drawn), the negative logarithm of the Ki (pKi) in assay [2] is 7.82; in assay [3], 8.05; in [4], 5.87; in assay [5], 8.55; in assay [6], 7.64; in [8] it was 5.38. The pKi in assay [1] is 6.86; in assay [10], 6.71; in assay [11], 6.04.

The pKi is the negative decadic logarithm of the Ki, by convention in mol/L. For orientation: Ki means a dissociation constant, usually derived from enzyme kinetics or from competition with a known ligand.
